The values below come from PMC11173677, “Identification and Evaluation of Olive Phenolics in the Context of Amine Oxidase Enzyme Inhibition and Depression: In Silico Modelling and In Vitro Validation” (Molecules, 2024).

As a reminder, the IC50 is the concentration at which inhibition is half-maximal.

For assay [1], the system named is T1, LSD1.
T1 construct: nuclear proteins extracted from the BJ cultures were directly assayed for LSD1 activity; endogenous in cells; host or cells: BJ human foreskin fibroblasts (nuclear extract, DEX-stimulated)
The assay is described as follows: LSD1 activity in nuclear extracts of BJ cells stimulated with DEX. The format is cell-based, human. The note with it: DEX 50 μM 72 h, then TCP 5 μM or OLP, HT, HTA 50 μM for 48 h.
Method: Histone demethylase LSD1 activity assay
4µL of nuclear extracts containing 5µg protein was added to designated strip wells with stably
captured LSD1 substrate (H3K4me2), followed by an additional 26µL of H3K4me2 (HG3)
substrate diluted in assay buffer (HG2). In no enzyme control wells, the 4µL of nuclear
extracts was replaced with 4µL of assay buffer. Blank wells contained 30µL of assay buffer.
A standard curve was generated by adding 1µL of standard (HG4) at incrementally increasing
concentrations (0.1-10ng/µL) to 29µL of assay buffer in designated standard wells. After all
wells were loaded appropriately, the assay plate was incubated away from light at room
temperature for 60 minutes. Following incubation, contents were aspirated and wells were
washed three times with 150µL of wash buffer (HG1). 50µL of capture antibody (HG5)
diluted at a 1:1000 ratio was then added to all wells before incubating at room temperature
for 60 minutes on a rotating platform. Well contents were then aspirated and washed four
times with 150µL of wash buffer. 50µL of detection antibody (HG6) diluted at a 1:1000 ration
was then added to each well. Assay plate was then incubated for a final time at room
temperature for 30 minutes. Well contents were aspirated again, followed by six washes with
150µL wash buffer. 50µL of fluoro-developer (HG7) was then added into each well and
allowed to develop away from light for 1-5 minutes. Fluorescence was then read on a
CLARIOstar Microplate Reader (BMG Labtech, Ortenberg Germany) at Ex/Em =

Assay [2] has as its system T2, MAO-A.
T2 construct: endogenous in cells; host or cells: BJ human foreskin fibroblasts stimulated with DEX or HC
The assay is described as follows: MAO-A activity assay in hESC-derived neurons stimulated with ATRA. The note with it: 1 μM ATRA 24 h, then TCP 5 μM, OLC 50 μM or OLP 50 μM for 24 h. It counts as cell-based, human. The procedure: (§1) An in vitro model of MDD was designed for stem cell-derived neuronal cells through incubation of 1 μM all-trans retinoic acid (Sigma-Aldrich PHR1187, St. Louis, MO, USA). All cell treatments were conducted in duplicate and replicated using independently differentiating neuronal plates.
(§2) Activity assays were commercially sourced from BioVision (Abcam, BioVision ab241031, Waltham, MA, USA) and were performed according to manufacturer’s instructions. The treatment groups were plated in duplicate on a black, flat 96-well microplate. The cells were homogenised in assay buffer using a microtube mixer at 4 °C and centrifuged at 10,000× g for 10 min. A Bradford assay was performed to determine the total protein concentration within each cell pellet (200 μg/well for BJ cells, 40 μg/well for hESC-derived neurons). Approximately 40 μL of supernatant was loaded into wells along with 10 μL of either […], or assay buffer for total MAO activity. A H2O2 standard was pipetted as supplied and 50 μL of reaction mix was pipetted into all wells. Using a CLARIOstar Plus Microplate Reader, (BMG Labtech, Ortenberg, Germany), fluorescence was measured kinetically at 25 °C for 60 min with Ex/Em = 535/587 nm.

For assay [3], the system named is T3, MAO-B.
T3 construct: endogenous in cells; host or cells: BJ human foreskin fibroblasts stimulated with DEX or HC
As to the kind of experiment: MAO-B activity assay in hESC-derived neurons stimulated with ATRA. It counts as cell-based, human. Particulars: 1 μM ATRA 24 h, then TCP 5 μM, OLC 50 μM or OLP 50 μM for 24 h. The procedure:
as §1, §2

The test system of a further assay is total MAO. The assay is described as follows: Total MAO activity assay in hESC-derived neurons stimulated with ATRA. It counts as cell-based, human. Particulars: 1 μM ATRA 24 h, then TCP 5 μM, OLC 50 μM or OLP 50 μM for 24 h. The procedure: as §1, §2
Assay [4] deals with MAO-B. Details: method as in PMID 17915852. The note with it: read-out: inhibition constant, MAO-B; cited from earlier work.
In assay [5] the target is MAO-A. Details: method as in PMID 17915852. Particulars: read-out: inhibition constant, MAO-A; cited from earlier work.
The test system of the next assay is H3K4 mono-methylation. As to the kind of experiment: H3K4 mono-methylation in BJ cells (Western blotting). The format is cell-based, human. Particulars: 50 μM, 48 h, compared to untreated cells; effects more pronounced with DEX. The procedure:
As described in the Supplementary Information, nuclear proteins extracted from the BJ cultures were directly assayed for LSD1 activity (Epigentek P-3076, Farmingdale, NY, USA). Fluorescence was read on a CLARIOstar Microplate Reader (BMG Labtech, Ortenberg, Germany) at Ex/Em = 530/590 nm (Figure S4). Histone proteins were extracted from the treated cultures and were analysed through Western blotting. The mono-methylation status of lysine on histone 3 (H3K4) was determined via immunodetection (Table S6).
100µL of Nuclear Extraction Buffer containing 0.2µL 1M DTT and 0.4µL PIC was then added to the remaining nuclei-containing pellets. Full resuspension was achieved through multiple rounds of vigorous vortexing and ice incubations (to maintain protein integrity). Once the entire pellet was visibly resuspended in NEB, tubes were centrifuged at 16,000g for 10 minutes. The resulting supernatant containing the nuclear extract fraction was transferred to clean 0.5mL tubes and stored at -80°C.
Acid extraction of histone proteins
Cells were washed in 10mL of pre-chilled PBS (1X) and detached from flask surface via mechanical disruption using a cell scraper. Cell solution was then transferred into a 15mL tube and centrifuged at 150g for 10 minutes. Supernatant was then discarded and the remaining cell pellet resuspended in 0.5mL PBS (1X) and transferred into a 1.5mL microcentrifuge tube. Cells were then centrifuged at 9400g for 20 seconds, after which the supernatant was removed and discarded. The remaining pellet was then briefly resuspended in 600µL of acid extraction lysis buffer (10mM KCl, 10mM HEPES, […]) containing cOmplete™ Mini Protease Inhibitor Cocktail (Sigma-Aldrich, Roche 11836153001, MO USA) and 0.3µL 1M DTT. This will cause cells to pre-swell, resulting in a reduced amount of PBS (1X) remaining in the microcentrifuge tube that may deter maximal cell lysis capacity. Cells were then centrifuged at 9400g for 20 seconds with the resultant supernatant aspirated and discarded. […]
A general note: A western blot detects proteins with antibodies after separation by electrophoresis.

For the next assay, the system named is human skin fibroblasts. Details: method as in PMID 37432217. The note with it: in comparison to untreated controls, at certain doses; cited from earlier work.
The next assay has as its target T4, purified MAO-A (Homo sapiens, UniProt P21397).
T4 construct: purchased Sigma-Aldrich MAK295
T4 sequence (P21397 1-527): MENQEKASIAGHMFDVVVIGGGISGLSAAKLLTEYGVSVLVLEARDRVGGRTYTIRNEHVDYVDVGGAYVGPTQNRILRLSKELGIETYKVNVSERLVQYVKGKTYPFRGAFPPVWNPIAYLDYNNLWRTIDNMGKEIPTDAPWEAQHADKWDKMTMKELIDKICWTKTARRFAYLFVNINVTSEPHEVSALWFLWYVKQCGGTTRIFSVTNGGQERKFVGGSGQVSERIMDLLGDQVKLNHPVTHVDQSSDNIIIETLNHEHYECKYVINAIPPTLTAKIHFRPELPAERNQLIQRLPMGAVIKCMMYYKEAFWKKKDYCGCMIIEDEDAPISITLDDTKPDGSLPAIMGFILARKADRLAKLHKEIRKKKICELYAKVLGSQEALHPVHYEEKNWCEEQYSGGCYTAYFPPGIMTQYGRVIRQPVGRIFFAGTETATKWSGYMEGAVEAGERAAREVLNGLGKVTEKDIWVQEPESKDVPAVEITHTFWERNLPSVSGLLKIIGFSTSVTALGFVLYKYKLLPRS
As to the kind of experiment: MAO-A direct screening assay (inhibitor screening kit). The format is biochemical. The note with it: purified enzyme; read-out: IC50, inhibition of MAO-A. The procedure: (§3) The assays were conducted for MAO-A and MAO-B according to the manufacturer’s instructions.

The target in a further assay is purified LSD1 (Homo sapiens, UniProt O60341). The assay is described as follows: LSD1 direct screening assay (Epigentek inhibitory screening kit). It counts as biochemical. Particulars: direct incubation with purified LSD1, Epigentek kit; read-out: IC50, inhibition of LSD1. The procedure: Fluorescence was measured using a CLARIOstar Plus Microplate Reader (BMG Labtech, Ortenberg, Germany) at excitation and emission wavelengths of 530 nm and 590 nm, respectively (Ex/Em = 530/590 nm).

The target of assay [6] is T5, LSD1 (Homo sapiens, UniProt O60341).
T5 construct: Reaction Biology Corporation (performed the assay)
The assay is described as follows: LSD1 fluorescence coupling enzyme assay (Reaction Biology Corporation). It counts as biochemical. Particulars: Reaction Biology Corp., 30 min pre-incubation, 10 μM histone H3(1-21)K4me2 peptide substrate; read-out: IC50, LSD1 demethylase activity. The procedure:
The inhibitory activity of HCl 489479, OLC, and OLP was measured using a fluorescence coupling enzyme assay (performed by Reaction Biology Corporation). […] All compounds were pre-incubated for 30 min with the enzyme before the addition of 10 μM histone H3(1-21)K4me2 peptide substrate to start the reaction. Fluorescence was measured using an EnVision Multimode Plate Reader at Ex/Em = 535/590.

Another assay concerns the target T6, purified MAO-B (Homo sapiens, UniProt P27338).
T6 construct: purchased Sigma-Aldrich MAK296
T6 sequence (P27338 1-520): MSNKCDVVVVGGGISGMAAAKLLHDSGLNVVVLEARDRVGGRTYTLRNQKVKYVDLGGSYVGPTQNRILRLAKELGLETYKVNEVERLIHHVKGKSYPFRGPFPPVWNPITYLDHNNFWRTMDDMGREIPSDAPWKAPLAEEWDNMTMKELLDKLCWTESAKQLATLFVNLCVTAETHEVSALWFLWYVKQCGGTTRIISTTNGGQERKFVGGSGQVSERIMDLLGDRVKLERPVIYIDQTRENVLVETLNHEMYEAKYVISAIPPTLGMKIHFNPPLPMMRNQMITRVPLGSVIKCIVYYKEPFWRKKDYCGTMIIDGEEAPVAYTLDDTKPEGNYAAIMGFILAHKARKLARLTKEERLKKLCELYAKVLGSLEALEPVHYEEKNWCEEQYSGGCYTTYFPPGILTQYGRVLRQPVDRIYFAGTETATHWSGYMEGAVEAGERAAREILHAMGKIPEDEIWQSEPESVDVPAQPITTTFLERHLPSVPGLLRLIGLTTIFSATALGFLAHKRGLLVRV
The assay is described as follows: MAO-B direct screening assay (inhibitor screening kit). It counts as biochemical. Particulars: purified enzyme; read-out: IC50, inhibition of MAO-B. The procedure: as §3

In assay [7] the test system is MAO-A. Details: method as in PMID 30809547. Particulars: cited from earlier work.
Assay [8] deals with MAO-B. Details: method as in PMID 30809547. The note with it: cited from earlier work.

For `N[C@@H]1C[C@H]1c1ccccc1` (racemic) [TCP, tranylcypromine, reference compound], the “LSD1 activity in BJ cultures stimulated with DEX” value (shortened to “LSD1 activity”) in the assay on LSD1 [1] is recorded as “significant reduction”. Moreover, the “MAO-A activity in hESC-derived neurons” value with MAO-A [2] is listed as “significantly reduced”. Further, in the assay on MAO-B [3], the “MAO-B activity in hESC-derived neurons” value is on record as “significantly reduced”. Also, the “total MAO activity in hESC-derived neurons” value with total MAO is “significantly reduced”.
Take `CNCc1cc(=O)oc2cc(OCc3cccc(Cl)c3)ccc12` [7-(3-chlorobenzyloxy)-4-(methylamino)methyl-coumarin]: the Ki was 100 nM on MAO-B [4] and 15700 nM on MAO-A [5].
Regarding `O=Cc1cc(=O)oc2cc(OCc3cccc(Cl)c3)ccc12` [7-(3-chlorobenzyloxy)-4-carboxaldehyde-coumarin], the Ki is 400 nM at MAO-B [4] and 11000 nM on MAO-A [5].
Take `OCCc1ccc(O)c(O)c1` [HT, hydroxytyrosol]: in the assay on LSD1 [1], the “LSD1 activity” value is on record as “significant reduction”. The “baseline levels of H3K4 mono-methylation in BJ cells” value in the assay with H3K4 mono-methylation was “increased”. For the same compound, the “growth capacity of human skin fibroblasts” value with human skin fibroblasts was “significantly increased”. Moreover, the figures for the IC50 on purified MAO-A, on purified LSD1 and on LSD1 [6] were 430 nM, 39 nM and 570 nM, respectively.
For the compound `CC(=O)OCCc1ccc(O)c(O)c1` [HTA, hydroxytyrosol acetate], the IC50 on purified MAO-B was 91400 nM; on purified MAO-A, 700 nM; on purified LSD1, 1100 nM; on LSD1 [6], 31 nM. In the assay on LSD1 [1], the “LSD1 activity” value is “significant reduction”. In addition, the “baseline levels of H3K4 mono-methylation in BJ cells” value in the assay with H3K4 mono-methylation is on record as “increased”.
As for `COc1cc(/C=C/c2ccc(O)cc2)cc(OC)c1` [pterostilbene], the IC50 was 13400 nM in the assay with MAO-A [7] and 138 nM in the assay with MAO-B [8].
Take `Oc1ccc(/C=C/c2cc(O)cc(O)c2)cc1` [resveratrol]: the figures for the IC50 with MAO-A [7] and in the assay with MAO-B [8] were 313 nM and 15800 nM, respectively.
Regarding isoeugenol, the IC50 with MAO-B [8] is 102000 nM.
